From patent publication US12168020B2, “Method for ameliorating, preventing or treating muscular atrophy or sarcopenia by administering composition comprising 2′-fucosyllactose as active ingredient” (ADVANCED PROTEIN TECHNOLOGIES CORP., priority 2021, dated 2024)

How the values were obtained:
NRF2 mRNA = experiment: qPCR of mitochondrial biosynthesis gene NRF2; type: cell-based, mouse; settings: C2C12, 2′-FL at a high concentration, vs control group
From the text: (§1) Mitochondria are organelles that have a main function of generating ATP, which is a form of intracellular energy, and perform various intracellular functions such as metabolism, signal transduction, apoptosis, and differentiation. Metabolic adaptation in skeletal muscle is achieved by the regulation of various genes, and PGC-1α (peroxisome proliferator-activated receptor-γ coactivator-1α) transcriptional cofactor is known to perform the most important role therefor. Accordingly, the mRNA expression changes of PGC-1α and the downstream gene thereof, NRF2, were determined upon treatment with 2′-FL.
(§2) For this purpose, CDNA was synthesized from RNA extracted from C2C12 cells using ReverTra Ace qPCR RT Kit (TOYOBO). In order to increase the efficiency of the reaction, the RNA was pre-heated at 65° C. for 5 minutes and then immediately stored on ice. Then, a total of 8 μl of reagent was prepared from 2 μl of 4×DN master mix containing a gDNA remover, 0.5 μg of mRNA, and nuclease-free water, and then was amplified at 37° C. for 5 minutes.
(§3) The reacted reagent was added with a 5×RT master mix, and amplified at 37° C. for 15 minutes, at 50° C. for 5 minutes, and at 98° C. for 5 minutes to synthesize cDNA. Then, the synthesized cDNA was subjected to qPCR using Thunderbird TMSYBR qPCR mix reagent (TOYOBO). The gene expression level was analyzed with the iQ5 Cycler System (Bio-Rad). […]

atrogin-1 protein = experiment: Dexamethasone-induced muscular atrophy mouse model: atrogin-1 immunoblotting of muscle tissue; type: in vivo; settings: 2′-FL at a high concentration (400 mg/kg oral), dexamethasone 10 mg/kg i.p., vs Veh
Description: In order to determine whether or not 2′-FL has a prophylactic effect against muscular atrophy in an animal model, 2′-FL was orally administered at a concentration of 200 or 400 mg/kg to 7-week-old male C57BL/6 mice for 7 days, followed by intraperitoneal injection of dexamethasone known as a drug inducing muscular atrophy at a concentration of 10 mg/kg, and at the same time, oral administration of 2′-FL for 2 weeks. At this time, the experiment was conducted on mouse experimental groups, namely, a Nor group that received intraperitoneal injection of saline and distilled water, a that received intraperitoneal injection of Veh group dexamethasone and was orally administered distilled water, and a 2FLL group and a 2FLH group that received intraperitoneal injection of dexamethasone and was orally administered 2′-FL at 200 mg/kg and 400 mg/kg, respectively. Proteins were extracted by adding a Halt™ protease inhibitor to lysis buffer (10 mM Tris-HCl, pH 7.5, 1% NP-40, 0.1% sodium deoxycholate, 0.1% SDS, 150 mM NaCl, and 1 mM EDTA) in order to confirm protein expression using mouse muscle tissue and then immunoblotting was performed. As primary antibodies, anti-α-tubulin (1:1000) and anti-atrogin-1 (1:1000) were used. The resulting image of immunoblotting was analyzed using a ChemiDoc™ touch imaging system (Bio-Rad) and Image Lab 5.2 software (Bio-Rad).

[1] = system: C57BL/6 mice, muscle tissue; experiment: Dexamethasone-induced muscular atrophy mouse model: H&E muscle histology and muscle tissue weight; type: in vivo; settings: 2FLH (2′-FL 400 mg/kg oral), dexamethasone 10 mg/kg i.p., vs Veh
Description: (§4) In order to determine whether or not 2′-FL has a prophylactic effect against muscular atrophy in an animal model, 2′-FL was orally administered at a concentration of 200 or 400 mg/kg to 7-week-old male C57BL/6 mice for 7 days, followed by intraperitoneal injection of dexamethasone known as a drug inducing muscular atrophy at a concentration of 10 mg/kg, and at the same time, oral administration of 2′-FL for 2 weeks. At this time, the experiment was conducted on mouse experimental groups, namely, a Nor group that received intraperitoneal injection of saline and distilled water, a that received intraperitoneal injection of Veh group dexamethasone and was orally administered distilled water, and a 2FLL group and a 2FLH group that received intraperitoneal injection of dexamethasone and was orally administered 2′-FL at 200 mg/kg and 400 mg/kg, respectively. The mouse muscle tissue was stained using the H&E method and then histological morphology was observed.

MuRF1 gene = experiment: qPCR of muscular atrophy gene MuRF1 after dexamethasone; type: cell-based, mouse; settings: 2′-FL 100 or 200 μM, dexamethasone 400 μM 24 hours, vs dexamethasone group (Veh)
[2] = system: differentiated C2C12, mitochondria; experiment: Mitochondrial function: mtDNA expression and mitochondrial density (MitoTracker); type: cell-based, mouse; settings: differentiated C2C12, 2′-FL 100 and 200 μM, 24 hours, vs control group
Description: Mitochondria have mitochondrial DNA (mtDNA) that is isolated from their own nuclear DNA. […] Such damage to mtDNA causes a decrease in mitochondrial function, leading to a decrease in synthesis of ATP, which is an energy molecule required for cellular a decrease in the ability to regulate activity, and homeostasis in vivo, which eventually causes the onset of various diseases. Accordingly, mtDNA expression and mitochondrial density upon treatment with 2′-FL were measured. […] C2C12 was treated with 2′-FL at different concentrations (100 and 200 μM) for 24 hours, was washed with PBS, added with a medium containing 200 nM of a MitoTracker green probe and cultured for 30 minutes. Then, the portion bound to the MitoTracker green probe was quantified with SpectraMax that absorbs a wavelength of 490 nm and emits a wavelength of 516 nm to measure the density of mitochondria. At this time, the AMPK agonist A-769662 (1 μM) was used as a positive control.

[3] = system: C2C12 myotubes treated with dexamethasone; experiment: Protection against dexamethasone-induced differentiation inhibition (myotube length and diameter); type: cell-based, mouse; settings: 2′-FL high concentration (200 μM), dexamethasone 400 μM 24 hours, vs dexamethasone group (Veh)
Description: (§5) Dexamethasone, a synthetic glucocorticoid, is known to decrease the rate of protein synthesis and increase the rate of protein degradation in muscles in vivo or in cultured cells. Accordingly, 1 hour after treatment of C2C12, which had been differentiated, with 2′-FL, C2C12 was treated with dexamethasone at a concentration of 400 μM for 24 hours to determine the muscular atrophy prevention effect of 2′-FL in a cell model. Meanwhile, in order to evaluate the prophylactic effect of the differentiation inhibition caused by treatment with dexamethasone, the length and diameter of myotubes were measured after treatment with dexamethasone.

C57BL/6 mice [4] = experiment: Dexamethasone-induced muscular atrophy mouse model: grip strength test; type: in vivo; settings: 2′-FL 200 or 400 mg/kg oral, dexamethasone 10 mg/kg i.p., day before end of experiment, vs Veh
Description: as §4, with “All experimental animals were subjected to a grip strength test” for “The mouse muscle tissue was stained”, “using a grip strength meter (Jeongdo Bio & Plant Co., Ltd.)” for “using”, “day before the end of the experiment.” for “H&E method and then histological morphology was observed.”

[5] = system: differentiated C2C12 treated with dexamethasone, mitochondria; experiment: Protection against dexamethasone-induced mitochondrial function inhibition; type: cell-based, mouse; settings: 2′-FL 100 or 200 μM, dexamethasone 400 μM 24 hours, vs dexamethasone group
Description: Dexamethasone, a synthetic glucocorticoid, is known to decrease the rate of protein synthesis and increase the rate of protein degradation in muscles in vivo or in cultured cells. Accordingly, 1 hour after treatment of C2C12, which had been differentiated, with 2′-FL, C2C12 was treated with dexamethasone at a concentration of 400 μM for 24 hours to determine the muscular atrophy prevention effect of 2′-FL in a cell model. After treatment with dexamethasone, mtDNA expression and mitochondrial density were measured. […] In FIG. 6, 2FLL represents a group treated with 2′-FL at 100 μM, and 2FLH represent a group treated with 2′-FL at 200 μM.

PGC-1α mRNA = experiment: qPCR of mitochondrial biosynthesis gene PGC-1α; type: cell-based, mouse; settings: C2C12, 2′-FL at a high concentration, vs control group
From the text: as §1, §2, §3

C57BL/6 mice [6] = experiment: Dexamethasone-induced muscular atrophy mouse model: body weight and plasma liver function test; type: in vivo; settings: dexamethasone 10 mg/kg i.p., vs Veh
Description: as §4, with “respectively.” for “respectively. The mouse muscle tissue was stained using the H&E method and then histological morphology was observed.”

C2C12 myotubes, MHC = experiment: MHC expression analysis by immunocytochemical staining (myocyte differentiation); type: cell-based, mouse; settings: C2C12, 2′-FL 100 and 200 μM, 24 hours, vs control group
Description: In order to differentiate mouse myoblasts into myotubes, the mouse myoblasts were seeded at a concentration of 4×10^5 cells/well in each well of a 6-well plate, cultured for 24 hours until confluence reached 100% and then 2% horse serum was added thereto. Then, the mouse myoblasts were differentiated for 6 days while exchanging the DMEM containing 2% horse serum with fresh DMEM every 2 days. Immunocytochemical staining was performed to determine the effect of treatment with 2′-FL on myocyte differentiation. Specifically, C2C12 was treated with 2′-FL at different concentrations (100 and 200 μM) for 24 hours, and then fixed with a 4% paraformaldehyde solution for 10 minutes. The fixed cells were washed with PBS containing 0.1% Triton X-100 and then reacted in 5% BSA solution for 1 hour. The cells were washed 3 times with 1×PBS again and then were allowed to react with an MHC antibody (Cell signaling) at room temperature overnight. After the reaction was completed, the cells were washed 3 times with PBS and reacted with Alexa Fluor 488 goat anti-rabbit IgG at room temperature for 1 hour, and then nuclei thereof were stained with a horchest solution and observed under a fluorescence microscope. At this time, the AMPK agonist A-769662 (1 μM) was used as a positive control.

[7] = system: C2C12, a mouse muscle (myoblast) cell line; experiment: MTT assay, cytotoxicity of 2′-FL in C2C12; type: cell-based; settings: C2C12, 2′-FL 100, 200, 400 μM, 24 hours, vs control group
Description: C2C12, a mouse muscle (myoblast) cell line, was cultured at 37° C. in the presence of 5% CO2 using a medium containing 90% DMEM, 10% FBS, and 10 unit/ml penicillin-streptomycin. In order to confirm the cytotoxicity of 2′-FL, the C2C12 cell line was seeded in each well of a 96-well plate at a concentration of 5×10^4 cells/well, cultured for 24 hours, and then treated with 2′-FL at various concentrations (100, 200, 400 μM) for 24 hours. Then, the medium was removed and a growth medium and 0.5 mg/ml of a diluted MTT solution were aliquoted in an amount of […] and incubated in a CO2 incubator. After 2 hours, the MTT reagent was removed, formazin was dissolved in DMSO (dimethyl sulfoxide), and absorbance was measured at 540 nm.

atrogin-1 gene = experiment: qPCR of muscular atrophy gene atrogin-1 after dexamethasone; type: cell-based, mouse; settings: 2′-FL 100 or 200 μM, dexamethasone 400 μM 24 hours, vs dexamethasone group (Veh)
[8] = system: differentiated C2C12 treated with dexamethasone; experiment: Protection against dexamethasone-induced growth inhibition (trypan blue cell count); type: cell-based, mouse; settings: 2′-FL high concentration (200 μM) 1 hour before dexamethasone 400 μM for 24 hours, vs dexamethasone group (Veh)
Description: as §5, with “In” for “Meanwhile, in”, “growth” for “the differentiation”, “dexamethasone, C2C12 was treated with 2′-FL and dexamethasone in” for “dexamethasone,”, “same manner as above, the cells were removed with trypsin,” for “length”, “the number” for “diameter”, “the cells was counted using trypan blue staining.” for “myotubes were measured after treatment with dexamethasone.”

2′-fucosyllactose [2′-FL]
expression of NRF2 mRNA (NRF2 mRNA): significantly increased
expression of atrogin-1 protein in muscle tissue (atrogin-1 protein): significantly decreased
muscular atrophy morphological characteristics (decreased muscle bundle size, imbalance in nuclear location), H&E [1]: ameliorated
weight of extensor digitorum longus [1]: significantly increased
weight of gastrocnemius muscle [1]: significantly increased
weight of muscle tissue (unspecified) [1]: significantly increased
MuRF1 gene expression (MuRF1 gene): significantly decreased
mitochondrial density measured using the MitoTracker [2]: increased in a concentration-dependent manner
mtDNA expression [2]: significantly increased in a concentration-dependent manner
diameter of myotubes [3]: significantly increased
length of myotubes [3]: significantly increased
grip strength (C57BL/6 mice [4]): significantly increased
mitochondrial function (mtDNA expression and mitochondrial density) [5]: significantly increased
expression of PGC-1α mRNA (PGC-1α mRNA): significantly increased
mouse weight (C57BL/6 mice [6]; 2FLH (2′-FL 400 mg/kg oral), 3 weeks): increased
plasma GOT activity (C57BL/6 mice [6]; 2′-FL 200 or 400 mg/kg oral): lowered
plasma GPT activity (C57BL/6 mice [6]; 2′-FL 200 or 400 mg/kg oral): lowered
MHC expression (C2C12 myotubes, MHC): increased
length and thickness of myotubes (C2C12 myotubes, MHC): increased
cell viability [7]: no difference in cell viability
atrogin-1 gene expression (atrogin-1 gene): significantly decreased
number of cells [8]: significantly increased
